Source: patent US10011616B2, “Boron-containing small molecules as antiprotozoal1 agents” (MMV MEDICINES FOR MALARIA VENTURE, priority 2015, dated 2018)

What was measured:
[1] = tested on: W2 strain of Plasmodium falciparum; assay: In vitro activity against W2 strain of Plasmodium falciparum (YOYO-1 flow cytometry); assay type: cell-based; details: Erythrocyte, 48 h, P. falciparum W2 in human erythrocytes, 2 d, growth inhibition, read-out: IC50: 1 Org. Growth P. falciparum W2, 2 d (LPS_00451)
Procedure: In Vitro Activity Against Plasmodium falciparum
b) Against W2 Strain of Plasmodium falciparum
W2 strain P. falciparum parasites were cultured in human erythrocytes and RPMI-1640 culture media with either 10% human serum or 0.5% Albumax serum substitute under 3% O2, 5% CO2, and 92% N2. Parasites synchronized to ring stage by treatments with 5% D-sorbitol were cultured with serial dilutions of benzoxaboroles from 5 to 10 mM stocks in 96 well microplate cultures including 200 μL of media/well, 2% hematocrit, and 1% parasitemia. At the completion of 48 h incubations, when untreated cultures contained new rings, parasites were fixed with 2% formaldehyde for 48 h, and 5 μL aliquots were transferred to another 96 well plate containing 150 μL/well of staining solution (100 mM NH4Cl, 0.1% Triton X-100, and 1 nM YOYO-1 in PBS). Parasites per erythrocyte were then determined by flow cytometry from plots of forward scatter against fluorescence (excitation 488 nm, emission 520 nm) using a FacSort flow cytometer (Beckton Dickinson) equipped with an AMS Loader (Cytek Development). All values were normalized to percent control activity, and IC50s were calculated using the Prism 3.0 program (GRAPHPAD Software). Goodness of fit was assessed by R^2 values, and meaningful dose-response curves yielded R^2 values >0.95.

[2] = tested on: 3D7 strain of Plasmodium falciparum; assay: In vitro activity against 3D7 strain of Plasmodium falciparum ([3H]-hypoxanthine incorporation assay); assay type: cell-based; details: Erythrocyte, 48 h, P. falciparum 3D7 in human erythrocytes, 2 d, growth inhibition, read-out: IC50: 1 Org. Growth P. falciparum 3D7, 2 d (LPS_00570)
Procedure: In Vitro Activity Against Plasmodium falciparum a) Against 3D7 Strain of Plasmodium falciparum Inhibition of 3D7 strain parasites was assessed using the [^3H]-hypoxanthine incorporation assay (Desjardins, et al. Antimicrob. Agents Chemother. 1979, 16, 710-718). Briefly, parasites were cultured in human erythrocytes (from the Spanish Red Cross blood bank) using RPMI-1640 culture media (Gibco) supplemented with 0.5% Albumax II (Invitrogen), 2% D-sucrose (Sigma-Aldrich), 0.3% glutamine (Sigma-Aldrich), and 5 mM hypoxanthine (Sigma-Aldrich). Cultures were maintained at 37° C. at an atmosphere of 5% O2, 5% CO2, and […]. To assess inhibition, asynchronous parasite cultures with 0.5% parasitemia and 2% hematocrit were exposed to 3-fold serial dilutions of test compounds for 24 hours in 96 well plate cultures (Costar #3894). After 24 hours, [^3H]-hypoxanthine was added, plates were incubated for an additional 24 hours, and parasites were harvested on glass fiber filters (Wallac #1450-421) using a cell harvester 96 (TOMTEC, Perkin Elmer). Filters were dried on scintillator sheets (MeltiLex A, PerkinElmer #1450-441) to determine incorporation of [^3H]-hypoxanthine. Radioactivity was measured using a microbeta counter (Perkin Elmer). Data are normalized using the incorporation of the positive control (infected erythrocytes without drug). IC50 values were determined using Excel and Grafit 5 software. Values were determined from at least three independent experiments, and standard deviations were calculated.

Compound	IC50 [1]	IC50 [2]
CCC[C@H](NC(=O)c1cnc(Oc2ccc3c(c2C)B(O)OC3)cn1)C(C)(C)O [Example 44, (S)—N-(2-hydroxy-2-methylhexan-3-yl)-5-(1-hydroxy-7-methyl-1,3-dihydrobenzo[c][1,2]oxaborol-6-yloxy)pyrazine-2-carboxamide]	129 nM	217 nM
Cc1c(Oc2cnc(C(=O)N[C@@H]3CCC[C@@H]3O)cn2)ccc2c1B(O)OC2 (relative stereo) [Example 49, 5-((1-hydroxy-7-methyl-1,3-dihydrobenzo[c][1,2]oxaborol-6-yl)oxy)-N-(cis-2-hydroxycyclopentyl)pyrazine-2-carboxamide]	292 nM	181 nM
Cc1c(Oc2cnc(C(=O)N[C@H](CO)C3CC3)cn2)ccc2c1B(O)OC2 [Example 31, (S)—N-(1-cyclopropyl-2-hydroxyethyl)-5-(1-hydroxy-7-methyl-1,3-dihydrobenzo[c][1,2]oxaborol-6-yloxy)pyrazine-2-carboxamide]	643 nM	1090 nM
Cc1c(Oc2cnc(C(=O)N3CC(O)(C4CC4)C3)cn2)ccc2c1B(O)OC2 [Example 55, (3-cyclopropyl-3-hydroxyazetidin-1-yl) (5-((1-hydroxy-7-methyl-1,3-dihydrobenzo[c][1,2]oxaborol-6-yl)oxy)pyrazin-2-yl)methanone]	51.7 nM	234 nM
CCCC1(O)CN(C(=O)c2cnc(Oc3ccc4c(c3C)B(O)OC4)cn2)C1 [Example 56, (3-hydroxy-3-propylazetidin-1-yl) (5-((1-hydroxy-7-methyl-1,3-dihydrobenzo[c][1,2]oxaborol-6-yl)oxy)pyrazin-2-yl)methanone]	15.9 nM	137 nM
C=CC(CO)NC(=O)c1cnc(Oc2ccc3c(c2C)B(O)OC3)cn1 (centres unmarked) [Example 20, 5-(1-hydroxy-7-methyl-1,3-dihydrobenzo[c][1,2]oxaborol-6-yloxy)-N-(1-hydroxybut-3-en-2-yl)pyrazine-2-carboxamide]	535 nM	786 nM
Cc1c(Oc2cnc(C(=O)NC(C)CO)cn2)ccc2c1B(O)OC2 (centres unmarked) [Example 5, 5-(1-hydroxy-7-methyl-1,3-dihydrobenzo[c][1,2]oxaborol-6-yloxy)-N-(1-hydroxypropan-2-yl)pyrazine-2-carboxamide]	92.3 nM	317 nM
CC[C@H](CO)NC(=O)c1cnc(Oc2ccc3c(c2C)B(O)OC3)cn1 [Example 19, (R)-5-(1-hydroxy-7-methyl-1,3-dihydrobenzo[c][1,2]oxaborol-6-yloxy)-N-(1-hydroxybutan-2-yl)pyrazine-2-carboxamide]	136 nM	403 nM
CC[C@@H](CO)NC(=O)c1cnc(Oc2ccc3c(c2C)B(O)OC3)cn1 [Example 21, (S)-5-(1-hydroxy-7-methyl-1,3-dihydrobenzo[c][1,2]oxaborol-6-yloxy)-N-(1-hydroxybutan-2-yl)pyrazine-2-carboxamide]	704 nM	801 nM
Cc1c(Oc2cnc(C(=O)N3CCC(C)(O)C3)cn2)ccc2c1B(O)OC2 (racemic) [Example 40, (3-hydroxy-3-methylpyrrolidin-1-yl) (5-((1-hydroxy-7-methyl-1,3-dihydrobenzo[c][1,2]oxaborol-6-yl)oxy)pyrazin-2-yl)methanone]	139 nM	314 nM
Cc1c(Oc2cnc(C(=O)N[C@@H](CO)C(C)C)cn2)ccc2c1B(O)OC2 [Example 25, (R)—N-(1-hydroxy-3-methylbutan-2-yl)-5-(1-hydroxy-7-methyl-1,3-dihydrobenzo[c][1,2]oxaborol-6-yloxy)pyrazine-2-carboxamide]	149 nM	466 nM
Cc1c(Oc2cnc(C(=O)N(C)CCO)cn2)ccc2c1B(O)OC2 [Example 10, 5-(1-hydroxy-7-methyl-1,3-dihydrobenzo[c][1,2]oxaborol-6-yloxy)-N-(2-hydroxyethyl)-N-methylpyrazine-2-carboxamide]	262 nM	437 nM
Cc1c(Oc2cnc(C(=O)N[C@H](CO)CCC(F)(F)F)cn2)ccc2c1B(O)OC2 [Example 38, (S)-5-(1-hydroxy-7-methyl-1,3-dihydrobenzo[c][1,2]oxaborol-6-yloxy)-N-(5,5,5-trifluoro-1-hydroxypentan-2-yl)pyrazine-2-carboxamide]	352 nM	959 nM
CCCC[C@H](CO)NC(=O)c1cnc(Oc2ccc3c(c2C)B(O)OC3)cn1 [Example 28, (R)-5-(1-hydroxy-7-methyl-1,3-dihydrobenzo[c][1,2]oxaborol-6-yloxy)-N-(1-hydroxyhexan-2-yl)pyrazine-2-carboxamide]	84.9 nM	215 nM
Cc1c(Oc2cnc(C(=O)N[C@@H](CO)CCC(F)(F)F)cn2)ccc2c1B(O)OC2 [Example 37, (R)-5-(1-hydroxy-7-methyl-1,3-dihydrobenzo[c][1,2]oxaborol-6-yloxy)-N-(5,5,5-trifluoro-1-hydroxypentan-2-yl)pyrazine-2-carboxamide]	230 nM	480 nM
Cc1c(Oc2cnc(C(=O)NC(CO)c3ccccc3)cn2)ccc2c1B(O)OC2 (centres unmarked) [Example 16, N-(2-hydroxy-1-phenylethyl)-5-(1-hydroxy-7-methyl-1,3-dihydrobenzo[c][1,2]oxaborol-6-yloxy)pyrazine-2-carboxamide]	223 nM	380 nM
Cc1c(Oc2cnc(C(=O)NCCO)cn2)ccc2c1B(O)OC2 [Example 1, 5-((1-hydroxy-7-methyl-1,3-dihydrobenzo[c][1,2]oxaborol-6-yl)oxy)-N-(2-hydroxyethyl)pyrazine-2-carboxamide]	372 nM	1080 nM
CCC[C@H](CO)NC(=O)c1cnc(Oc2ccc3c(c2C)B(O)OC3)cn1 [Example 14, (R)-5-(1-hydroxy-7-methyl-1,3-dihydrobenzo[c][1,2]oxaborol-6-yloxy)-N-(1-hydroxypentan-2-yl)pyrazine-2-carboxamide]	161 nM	201 nM
Cc1c(Oc2cnc(C(=O)N[C@H](C)CO)cn2)ccc2c1B(O)OC2 [Example 11]	944 nM	848 nM
Cc1c(Oc2cnc(C(=O)N[C@@H]3CCC[C@H]3O)cn2)ccc2c1B(O)OC2 [Example 42, 5-((1-hydroxy-7-methyl-1,3-dihydrobenzo[c][1,2]oxaborol-6-yl)oxy)-N-((1R,2R)-2-hydroxycyclopentyl)pyrazine-2-carboxamide]	133 nM	245 nM
Cc1c(Oc2cnc(C(=O)N[C@@H](CO)C3CC3)cn2)ccc2c1B(O)OC2 [Example 24, (R)—N-(1-cyclopropyl-2-hydroethyl)-5-(1-hydroxy-7-methyl-1,3-dihydrobenzo[c][1,2]oxaborol-6-yloxy)pyrazine-2-carboxamide]	492 nM	587 nM
CCC1(O)CN(C(=O)c2cnc(Oc3ccc4c(c3C)B(O)OC4)cn2)C1 [Example 54, (3-ethyl-3-hydroxyazetidin-1-yl)(5-((1-hydroxy-7-methyl-1,3-dihydrobenzo[c][1,2]oxaborol-6-yl)oxy)pyrazin-2-yl)methanone]	28.9 nM	87 nM
Cc1c(Oc2cnc(C(=O)N[C@@H](CO)CC(F)(F)F)cn2)ccc2c1B(O)OC2 [Example 33, (R)-5-(1-hydroxy-7-methyl-1,3-dihydrobenzo[c][1,2]oxaborol-6-yloxy)-N-(4,4,4-trifluoro-1-hydroxybutan-2-yl)pyrazine-2-carboxamide]	82.2 nM	149 nM
Cc1c(Oc2cnc(C(=O)N[C@H](CO)C(C)C)cn2)ccc2c1B(O)OC2 [Example 23, (S)—N-(1-hydroxy-3-methylbutan-2-yl)-5-(1-hydroxy-7-methyl-1,3-dihydrobenzo[c][1,2]oxaborol-6-yloxy)pyrazine-2-carboxamide]	774 nM	1990 nM
Cc1c(Oc2cnc(C(=O)NC(CO)C(C)C)cn2)ccc2c1B(O)OC2 (centres unmarked) [Example 7, N-(1-hydroxy-3-methylbutan-2-yl)-5-(1-hydroxy-7-methyl-1,3-dihydrobenzo[c][1,2]oxaborol-6-yloxy)pyrazine-2-carboxamide]	115 nM	96.5 nM
